Measured values published in publication PMC5316400, “Validation of precision-cut liver slices to study drug-induced cholestasis: a transcriptomics approach” (Archives of Toxicology, 2016).

Assays:
[1] = test system: Genes involved in hepatic cholestasis pathway; assay: Microarray gene expression in human PCLS exposed to cholestatic drugs: hepatic cholestasis pathway genes; settings: 24 h, 60 μM bile acid mix
Procedure: (§1) Precision-cut liver slices of 5 mm diameter and 250 μm thickness were prepared (de Graaf et al. [2010]). At this thickness, full penetration of substrates has been shown. PCLS were made using the Krumdieck tissue slicer (Alabama R&D, Munford, AL, USA) in ice-cold Krebs buffer at pH 7.42, enriched with glucose to a final concentration of 25 mM, saturated with carbogen (95 % O2/5 % CO2). Immediately after the slices were made, they were placed in ice-cold University of Wisconsin organ preservation solution (UW, Dupont Critical Care, Waukegan, IL, USA) and stored on ice until the beginning of the experiment. Slices were pre-incubated individually in 12-well plates in 1.3 ml of Williams Medium E with glutamax-1 (Gibco, Invitrogen, Paisley, Scotland) supplemented with 25 mM D-glucose and 50 μg/ml gentamycin (Gibco, Invitrogen, Paisley, Scotland). In the incubator (Sanyo CO2/O2 Incubator, PANASONIC, Secaucus, NJ, USA), the plates were gently shaken (90 times/min) for 1 h under 80 % O2 and 5 % CO2 atmosphere at 37 °C. This pre-incubation allows the slices to restore their ATP levels. […] The plates were incubated under the same conditions for 24 h. All incubation conditions were carried out in triplicate. Each experiment was performed in slices of 6 different human livers (Table 1). Slices were harvested for ATP assay in 100 mM Tris buffer with 2 mM EDTA and for RNA isolation in RNAlater. The bile acid mix was added to the medium in order to create an environment similar to the physiological concentration in the portal vein. The composition of the serum bile acids was according to Scherer et al. ([2009]). Pilot experiments were performed to find out the non-toxic concentration of the bile acid mix.
(§2) Maxwell® 16 LEV Total RNA purification kit (Promega, The Netherlands) with Maxwell® 16 LEV Instrument was used to isolate RNA from the samples. Immediately after isolation, the RNA quality was assessed by measuring the 260/280 and 260/230 ratios, and the concentration was measured with the ND-1000 spectrophotometer (Fisher Scientific, Landsmeer, The Netherlands). The quality (RIN value) and quantity of the RNA were determined by high-throughput Caliper GX LabChip RNA kit (Caliper).
(§3) Ambion Illumina Total Prep RNA kit was used to transcribe 300 ng RNA to cRNA according to the manufacturer’s instructions. A total of 750 ng of cRNA was hybridized at 58 °C for 16 h to the Illumina HumanHT-12 v4 Expression BeadChips. BeadChips were scanned using Iscan software, and IDAT files were generated (Illumina, San Diego, CA, USA).
(§4) GenomeStudio software (Illumina) was used to read the IDAT files and generate raw expression values. The ArrayAnalysis web service (www.arrayanalysis.org/) was used for further preprocessing the data, which uses lumi R package (Eijssen et al. [2013]). Raw gene expression data were background-corrected (bgAdjust), variance-stabilized (VST) and normalized by quantile normalization. After normalization, the data were corrected for batch differences owing to RNA isolation and hybridization using the ComBat method implemented in the swamp package in R (Lauss et al. [2013]). Differentially expressed genes in slices exposed to the cholestatic drugs in the presence of bile acids versus the slices exposed to vehicle (DMSO) in the presence of bile acids were identified using the unpaired moderated t test in the limma package (Ritchie et al. [2015]). Genes that are regulated with a criterion of fold change of 1.5 (≤ or ≥1.5), and FDR-corrected p value ≤0.05 (Benjamini and Hochberg method) were chosen for pathway analysis. To compare our data with the scarcely available human in vivo data, human in vivo late-stage cholestasis data were downloaded from the Gene Expression Omnibus database (GSE46960).

[2] = test system: Genes involved in the FXR pathway; assay: Microarray gene expression in human PCLS exposed to cholestatic drugs: FXR pathway genes; settings: 24 h, 60 μM bile acid mix
Procedure: as §1, §2, §3, §4

[3] = test system: Genes involved in unfolded protein response (UPR); assay: Microarray gene expression in human PCLS exposed to cholestatic drugs: unfolded protein response genes; type: cell-based; settings: 24 h, 60 μM bile acid mix
Procedure: as §1, §2, §3, §4

[4] = test system: human precision-cut liver slices (PCLS); assay: Transcriptomics of human PCLS: differentially regulated genes; type: cell-based; settings: fold change of 1.5 and adjusted p value 0.05, 24 h, 60 μM bile acid mix
Procedure: as §1, §2, §3, §4

[5] = adult patients, therapeutic dose, systemic blood; no reference given; cited from earlier work
[6] = C max in systemic blood of adult patients after a therapeutic dose; settings: highest toxic concentration tested in human PCLS vs C max in adult patients

Compound: C[C@]12CCC(=O)C=C1CC[C@@H]1[C@@H]2CC[C@@]2(C)[C@H]1CC[C@]2(C)O [MT, methyl testosterone]
- ABCB4 fold change ([1]; 100 μM): −3.6
- ABCB11 fold change ([1]; 100 μM): −1.2
- ABCC3 fold change ([1]; 100 μM): −1.8
- ABCG5 fold change ([1]; 100 μM): −1.7
- ABCG8 fold change ([1]; 100 μM): −1.4
- CYP8B1 fold change ([1]; 100 μM): 1.1
- CYP27A1 fold change ([1]; 100 μM): −1.5
- GCGR fold change ([1]; 100 μM): −1.1
- IL1B fold change ([1]; 100 μM): −1.2
- IL1RL1 fold change ([1]; 100 μM): 3.5
- IL1RN fold change ([1]; 100 μM): 1.9
- IRAK2 fold change ([1]; 100 μM): 1.0
- JUN fold change ([1]; 100 μM): 1.6
- NR0B2 fold change ([1]; 100 μM): 1.0
- NR1H3 fold change ([1]; 100 μM): −1.3
- NR1H4 fold change ([1]; 100 μM): −1.1
- PPRC1 fold change ([1]; 100 μM): 1.1
- RXRA fold change ([1]; 100 μM): −1.7
- SLC22A7 fold change ([1]; 100 μM): −1.1
- TNFRSF1B fold change ([1]; 100 μM): 1.1
- ABCB4 fold change ([2]; 100 μM): −3.6
- ABCB11 fold change ([2]; 100 μM): −1.7
- ABCG5 fold change ([2]; 100 μM): −1.6
- ABCG8 fold change ([2]; 100 μM): −1.4
- APOC2 fold change ([2]; 100 μM): 1.0
- APOC4 fold change ([2]; 100 μM): −1.4
- APOF fold change ([2]; 100 μM): 1.1
- BAAT fold change ([2]; 100 μM): −1.4
- C3 fold change ([2]; 100 μM): −2.0
- CYP8B1 fold change ([2]; 100 μM): 1.1
- CYP27A1 fold change ([2]; 100 μM): −1.5
- FASN fold change ([2]; 100 μM): 1.2
- FBP1 fold change ([2]; 100 μM): 1.2
- FETUB fold change ([2]; 100 μM): −1.3
- FGA fold change ([2]; 100 μM): 1.9
- ITIH4 fold change ([2]; 100 μM): −1.4
- KNG1 fold change ([2]; 100 μM): −1.7
- NR0B2 (SHP) fold change ([2]; 100 μM): 1.3
- NR1H3 (LXR) fold change ([2]; 100 μM): −1.0
- NR1H4 (FXR) fold change ([2]; 100 μM): −1.2
- PON1 fold change ([2]; 100 μM): 1.1
- RXRA fold change ([2]; 100 μM): −1.7
- SCARB1 fold change ([2]; 100 μM): −1.6
- SDC1 fold change ([2]; 100 μM): −1.8
- SERPINF2 fold change ([2]; 100 μM): −1.2
- SLC22A7 fold change ([2]; 100 μM): −1.5
- SLC51B fold change ([2]; 100 μM): −2.8
- SULT2A1 fold change ([2]; 100 μM): 1.7
- ATF4 fold change ([3]; 100 μM): 1.2
- DDIT3 (CHOP) fold change ([3]; 100 μM): 2.9
- DNAJB9 fold change ([3]; 100 μM): 1.3
- ERN1 fold change ([3]; 100 μM): 3.0
- HSPA9 fold change ([3]; 100 μM): 1.3
- HSPH1 fold change ([3]; 100 μM): 1.7
- INSIG1 fold change ([3]; 100 μM): −1.5
- NFE2L2 fold change ([3]; 100 μM): −1.1
- SYVN1 fold change ([3]; 100 μM): 1.1
- Number of regulated genes ([4]; 25 μM): 11
- Number of regulated genes ([4]; 50 μM): 38
- Number of regulated genes ([4]; 100 μM): 233
- Cmax [5]: 130 nM
- toxic concentration used in PCLS study relative to C max [6]: ~ 770 × C max

Compound: C#C[C@]1(O)CC[C@H]2[C@@H]3CCc4cc(O)ccc4[C@H]3CC[C@@]21C [EE, ethinyl estradiol]
- Number of regulated genes ([4]; 25 μM): 0
- Number of regulated genes ([4]; 50 μM): 5
- Number of regulated genes ([4]; 75 μM): 63
- Cmax [5]: 8.2 nM

Compound: S=C=Nc1cccc2ccccc12 [AN, Alpha-naphthylisothiocyanate]
- ABCB4 fold change ([1]; 75 μM): −2.1
- ABCB11 fold change ([1]; 75 μM): −1.3
- ABCC3 fold change ([1]; 75 μM): −1.2
- ABCG5 fold change ([1]; 75 μM): −1.6
- ABCG8 fold change ([1]; 75 μM): −2.3
- CYP8B1 fold change ([1]; 75 μM): −3.4
- CYP27A1 fold change ([1]; 75 μM): −1.4
- GCGR fold change ([1]; 75 μM): −1.9
- IL1B fold change ([1]; 75 μM): −1.2
- IL1RL1 fold change ([1]; 75 μM): 2.3
- IL1RN fold change ([1]; 75 μM): 1.1
- IRAK2 fold change ([1]; 75 μM): 1.6
- JUN fold change ([1]; 75 μM): 1.3
- NR0B2 fold change ([1]; 75 μM): −1.2
- NR1H3 fold change ([1]; 75 μM): −1.1
- NR1H4 fold change ([1]; 75 μM): −1.1
- PPRC1 fold change ([1]; 75 μM): 1.6
- RXRA fold change ([1]; 75 μM): −1.6
- SLC22A7 fold change ([1]; 75 μM): −2.9
- TNFRSF1B fold change ([1]; 75 μM): −1.5
- ABCB4 fold change ([2]; 75 μM): −2.1
- ABCB11 fold change ([2]; 75 μM): −1.8
- ABCG5 fold change ([2]; 75 μM): −1.5
- ABCG8 fold change ([2]; 75 μM): −2.3
- APOC2 fold change ([2]; 75 μM): −1.8
- APOC4 fold change ([2]; 75 μM): −1.8
- APOF fold change ([2]; 75 μM): −1.9
- BAAT fold change ([2]; 75 μM): −1.8
- C3 fold change ([2]; 75 μM): −1.7
- CYP8B1 fold change ([2]; 75 μM): −3.5
- CYP27A1 fold change ([2]; 75 μM): −1.3
- FASN fold change ([2]; 75 μM): −1.9
- FBP1 fold change ([2]; 75 μM): −1.8
- FETUB fold change ([2]; 75 μM): −2.0
- FGA fold change ([2]; 75 μM): −2.1
- ITIH4 fold change ([2]; 75 μM): −1.9
- KNG1 fold change ([2]; 75 μM): −2.3
- NR0B2 (SHP) fold change ([2]; 75 μM): −1.8
- NR1H3 (LXR) fold change ([2]; 75 μM): −1.8
- NR1H4 (FXR) fold change ([2]; 75 μM): −1.8
- PON1 fold change ([2]; 75 μM): −2.0
- RXRA fold change ([2]; 75 μM): −1.5
- SCARB1 fold change ([2]; 75 μM): −2.2
- SDC1 fold change ([2]; 75 μM): −2.0
- SERPINF2 fold change ([2]; 75 μM): −1.8
- SLC22A7 fold change ([2]; 75 μM): −2.9
- SLC51B fold change ([2]; 75 μM): −1.9
- SULT2A1 fold change ([2]; 75 μM): −2.1
- ATF4 fold change ([3]; 75 μM): 2.3
- DDIT3 (CHOP) fold change ([3]; 75 μM): 2.9
- DNAJB9 fold change ([3]; 75 μM): 2.7
- ERN1 fold change ([3]; 75 μM): 1.5
- HSPA9 fold change ([3]; 75 μM): 1.9
- HSPH1 fold change ([3]; 75 μM): 2.0
- INSIG1 fold change ([3]; 75 μM): −2.5
- NFE2L2 fold change ([3]; 75 μM): 1.5
- SYVN1 fold change ([3]; 75 μM): 1.5
- Number of regulated genes ([4]; 25 μM): 2
- Number of regulated genes ([4]; 50 μM): 183
- Number of regulated genes ([4]; 75 μM): 458
